Assay results reported in ChEMBL document CHEMBL1201862, “PubChem BioAssay data set” (2004).
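Interpolation was linear, between the two tested concentrations surrounding the appropriate level; five concentrations were tested over 48 hours in 96-well plates. GI50 = concentration required for 50% inhibition of growth.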 The source made the active and inactive calls. Cut-off read from the data, not from the text of the source: active = GI50 up to about 1.1 µM and inactive = higher.

Tests used:
Assay in all cases: DTP human tumour cell line panel, 48 h
DMS-273 = test system: DMS-273
M19-MEL = test system: M19-MEL
HOP-18 = test system: HOP-18
KM-20L2 = test system: KM-20L2
SNB-78 = test system: SNB-78
DLD-1 = test system: DLD-1
XF498 = test system: XF498
DMS-114 = test system: DMS-114
RXF 631 = test system: RXF 631

SMILES: Cc1ccc(-c2cc(-c3ccco3)c(C#N)c(O)n2)cc1
- GI50 (DMS-273): > 100 µM (inactive)
- GI50 (M19-MEL): > 100 µM (inactive)
- GI50 (HOP-18): 13.3 µM (inactive)
- GI50 (KM-20L2): > 100 µM (inactive)
- GI50 (SNB-78): > 100 µM (inactive)
- GI50 (DLD-1): > 100 µM (inactive)

SMILES: CCN(CC)CCn1c2ccccc2c(=O)c2c(O)ccc(O)c21
- GI50 (XF498): 21.6 µM (inactive)
- GI50 (DMS-273): 99.1 µM (inactive)
- GI50 (DMS-114): 18.5 µM (inactive)
- GI50 (KM-20L2): > 100 µM (inactive)
- GI50 (SNB-78): 23.4 µM (inactive)
- GI50 (RXF 631): > 45.7 µM (inactive)

SMILES: O=C(O)[C@@H](NS(=O)(=O)c1ccc2ccccc2c1)c1ccccc1
- GI50 (XF498): 75.5 µM (inactive)
- GI50 (DMS-273): > 100 µM (inactive)
- GI50 (M19-MEL): > 100 µM (inactive)
- GI50 (HOP-18): > 100 µM (inactive)
- GI50 (KM-20L2): > 100 µM (inactive)
- GI50 (RXF 631): > 100 µM (inactive)
- GI50 (DLD-1): > 100 µM (inactive)

SMILES: CC(C)c1cccc(C(C)C)c1/N=C(/N)C#N
- GI50 (XF498): > 100 µM (inactive)
- GI50 (DMS-273): > 43 µM (inactive)
- GI50 (DMS-114): 29.9 µM (inactive)
- GI50 (M19-MEL): > 60 µM (inactive)
- GI50 (HOP-18): > 86.1 µM (inactive)
- GI50 (KM-20L2): > 100 µM (inactive)
- GI50 (SNB-78): 99.1 µM (inactive)
- GI50 (RXF 631): > 100 µM (inactive)
- GI50 (DLD-1): 37 µM (inactive)

SMILES: OCCCNc1ccnc2cc(Cl)ccc12
- GI50 (XF498): > 100 µM (inactive)
- GI50 (DMS-114): > 100 µM (inactive)
- GI50 (M19-MEL): > 100 µM (inactive)
- GI50 (HOP-18): > 100 µM (inactive)
- GI50 (KM-20L2): > 100 µM (inactive)
- GI50 (SNB-78): > 100 µM (inactive)
- GI50 (DLD-1): > 100 µM (inactive)

SMILES: NCCCOCC(=O)O
- GI50 (DMS-273): > 100 µM (inactive)
- GI50 (DMS-114): > 100 µM (inactive)
- GI50 (M19-MEL): > 100 µM (inactive)
- GI50 (KM-20L2): > 100 µM (inactive)
- GI50 (SNB-78): > 100 µM (inactive)

SMILES: Nc1c(-c2ccc(Cl)cc2Cl)[n+]([O-])c2ccccc2[n+]1[O-]
- GI50 (XF498): > 100 µM (inactive)
- GI50 (DMS-273): > 100 µM (inactive)
- GI50 (DMS-114): > 100 µM (inactive)
- GI50 (M19-MEL): > 100 µM (inactive)
- GI50 (HOP-18): 76 µM (inactive)
- GI50 (KM-20L2): > 100 µM (inactive)
- GI50 (SNB-78): > 100 µM (inactive)
- GI50 (RXF 631): > 100 µM (inactive)
- GI50 (DLD-1): > 100 µM (inactive)

SMILES: O=c1oc(=O)c2oc3ccccc3oc1=2
- GI50 (XF498): > 100 µM (inactive)
- GI50 (DMS-273): > 100 µM (inactive)
- GI50 (DMS-114): > 100 µM (inactive)
- GI50 (M19-MEL): > 100 µM (inactive)
- GI50 (HOP-18): > 100 µM (inactive)
- GI50 (KM-20L2): > 100 µM (inactive)
- GI50 (DLD-1): > 100 µM (inactive)

SMILES: COC(=O)C(=O)C(C(=O)C=C(C)C)C(=O)C(=O)Nc1nc2ccc([N+](=O)[O-])cc2s1 (centres undefined)
- GI50 (DMS-273): 47.6 µM (inactive)
- GI50 (DMS-114): 31.4 µM (inactive)
- GI50 (M19-MEL): > 100 µM (inactive)
- GI50 (HOP-18): 4.51 µM (inactive)
- GI50 (KM-20L2): > 100 µM (inactive)
- GI50 (SNB-78): 58.2 µM (inactive)
- GI50 (DLD-1): 51.8 µM (inactive)

SMILES: O=C1/C(=C/c2ccc3c(c2)OCO3)SC2C=Nc3ccccc3N12 (centres undefined)
- GI50 (XF498): > 100 µM (inactive)
- GI50 (DMS-273): > 100 µM (inactive)
- GI50 (DMS-114): 93.5 µM (inactive)
- GI50 (M19-MEL): > 100 µM (inactive)
- GI50 (HOP-18): > 100 µM (inactive)
- GI50 (KM-20L2): > 100 µM (inactive)
- GI50 (SNB-78): 92.9 µM (inactive)
- GI50 (RXF 631): > 100 µM (inactive)
- GI50 (DLD-1): > 100 µM (inactive)

SMILES: C=CCNC(=O)NCCCC(NC(C)=O)C(=O)NCc1ccccc1 (centres undefined)
- GI50 (XF498): > 100 µM (inactive)
- GI50 (DMS-273): > 100 µM (inactive)
- GI50 (M19-MEL): > 100 µM (inactive)
- GI50 (HOP-18): > 100 µM (inactive)
- GI50 (KM-20L2): > 100 µM (inactive)
- GI50 (RXF 631): > 100 µM (inactive)

SMILES: COc1cc2c(c(OC)c1O)-c1ccc(SC)c(=O)cc1C(NC(C)=O)CC2 (centres undefined)
- GI50 (DMS-273): < 0.01 µM (active)
- GI50 (DMS-114): < 0.01 µM (active)
- GI50 (M19-MEL): < 0.01 µM (active)
- GI50 (KM-20L2): 0.0129 µM (active)
- GI50 (SNB-78): < 0.01 µM (active)
- GI50 (DLD-1): 0.0597 µM (active)

SMILES: OCC(O)COc1c(Cl)ccc(Cl)c1Cl (centres undefined)
- GI50 (XF498): > 100 µM (inactive)
- GI50 (DMS-273): > 100 µM (inactive)
- GI50 (DMS-114): > 100 µM (inactive)
- GI50 (M19-MEL): > 100 µM (inactive)
- GI50 (HOP-18): > 100 µM (inactive)
- GI50 (KM-20L2): > 100 µM (inactive)
- GI50 (SNB-78): > 100 µM (inactive)
- GI50 (DLD-1): > 100 µM (inactive)

SMILES: O=C(CCN1CCC(CCO)CC1)Nc1ccc2c(c1)C(=O)c1ccc(NC(=O)CCN3CCC(CCO)CC3)cc1C2=O
- GI50 (DMS-273): 6.81 µM (inactive)
- GI50 (DMS-114): 6.53 µM (inactive)
- GI50 (M19-MEL): 97.5 µM (inactive)
- GI50 (HOP-18): 25.5 µM (inactive)
- GI50 (KM-20L2): 27.9 µM (inactive)
- GI50 (SNB-78): 3.43 µM (inactive)
- GI50 (DLD-1): 10.4 µM (inactive)

SMILES: CN1C(=O)N(C)C2(O)c3ccccc3C(=O)C12O (centres undefined)
- GI50 (DMS-273): > 100 µM (inactive)
- GI50 (DMS-114): > 100 µM (inactive)
- GI50 (M19-MEL): > 100 µM (inactive)
- GI50 (HOP-18): > 100 µM (inactive)
- GI50 (KM-20L2): > 100 µM (inactive)
- GI50 (SNB-78): > 100 µM (inactive)
- GI50 (RXF 631): > 100 µM (inactive)
- GI50 (DLD-1): > 100 µM (inactive)

SMILES: Cc1ccc(S(=O)(=O)c2c(N)n(CCN(C)C)c3nc4ccccc4nc23)cc1
- GI50 (XF498): > 100 µM (inactive)
- GI50 (DMS-273): > 100 µM (inactive)
- GI50 (DMS-114): > 100 µM (inactive)
- GI50 (M19-MEL): > 100 µM (inactive)
- GI50 (HOP-18): > 100 µM (inactive)
- GI50 (SNB-78): > 100 µM (inactive)
- GI50 (DLD-1): > 100 µM (inactive)

SMILES: CC(=O)OC1(C(C)=O)CC2(c3ccccc3)OC1(c1ccccc1)c1ccccc12 (centres undefined)
- GI50 (XF498): 5.51 µM (inactive)
- GI50 (DMS-273): 5.08 µM (inactive)
- GI50 (DMS-114): 3.21 µM (inactive)
- GI50 (M19-MEL): 9.77 µM (inactive)
- GI50 (HOP-18): 42.5 µM (inactive)
- GI50 (KM-20L2): 8.59 µM (inactive)
- GI50 (SNB-78): 31.7 µM (inactive)
- GI50 (RXF 631): 16.9 µM (inactive)
- GI50 (DLD-1): 8.34 µM (inactive)

SMILES: O=C(Nc1cccc(C(F)(F)F)c1)C(=O)C(C(=O)c1ccc2ccccc2c1)C1OC(=O)c2ccccc21 (centres undefined)
- GI50 (XF498): 0.887 µM (active)
- GI50 (DMS-273): 6.3 µM (inactive)
- GI50 (DMS-114): 6.89 µM (inactive)
- GI50 (M19-MEL): 8.51 µM (inactive)
- GI50 (KM-20L2): 15.8 µM (inactive)
- GI50 (SNB-78): 7.45 µM (inactive)
- GI50 (DLD-1): 6.35 µM (inactive)

SMILES: Cc1cc2c(s1)C(=O)c1sccc1C2=O
- GI50 (XF498): 1.55 µM (inactive)
- GI50 (DMS-273): 1.24 µM (inactive)
- GI50 (HOP-18): 1.48 µM (inactive)
- GI50 (KM-20L2): 2.46 µM (inactive)
- GI50 (DLD-1): 1.64 µM (inactive)

SMILES: CC(=O)Nc1ccc(/C=C/C(=O)c2sc(C(N)=S)nc2C)cc1
- GI50 (DMS-273): > 100 µM (inactive)
- GI50 (DMS-114): > 100 µM (inactive)
- GI50 (M19-MEL): > 100 µM (inactive)
- GI50 (HOP-18): > 100 µM (inactive)
- GI50 (KM-20L2): > 100 µM (inactive)
- GI50 (SNB-78): > 100 µM (inactive)
- GI50 (DLD-1): > 100 µM (inactive)

SMILES: CN1CCC23c4c5ccc(O)c4OC2C(=NN=C2CCC4(O)C6Cc7ccc(O)c8c7C4(CCN6C)C2O8)CCC3(O)C1C5 (centres undefined)
- GI50 (XF498): > 100 µM (inactive)
- GI50 (DMS-273): > 100 µM (inactive)
- GI50 (DMS-114): > 100 µM (inactive)
- GI50 (M19-MEL): > 100 µM (inactive)
- GI50 (HOP-18): > 100 µM (inactive)
- GI50 (KM-20L2): > 100 µM (inactive)
- GI50 (RXF 631): > 100 µM (inactive)
- GI50 (DLD-1): > 100 µM (inactive)

SMILES: CC(C)(CN1CCCCC1)C(=O)CC(SCCS(=O)(=O)O)c1ccc(Br)cc1 (centres undefined)
- GI50 (XF498): 0.562 µM (active)
- GI50 (DMS-273): 1.65 µM (inactive)
- GI50 (DMS-114): 1.75 µM (inactive)
- GI50 (M19-MEL): 1.66 µM (inactive)
- GI50 (HOP-18): 0.832 µM (active)
- GI50 (KM-20L2): 1.58 µM (inactive)
- GI50 (SNB-78): 4.46 µM (inactive)
- GI50 (DLD-1): 1.67 µM (inactive)

SMILES: C[C@@H]1[C@@H]2[C@@H](C=C3C4CCC5Cc6nc7c(nc6C[C@@]5(C)C4C[C@H](O)[C@]32CO)CC2CCC3C4=C[C@H]5O[C@@]6(OC(C)(CO)C[C@@H]6O)[C@H](C)[C@@]5(O)[C@]4(C)[C@@H](O)CC3[C@]2(C)C7)O[C@]12CCC(C)(C)O2 (some centres undefined)
- GI50 (XF498): 0.00507 µM (active)
- GI50 (DMS-273): 0.000826 µM (active)
- GI50 (M19-MEL): 0.966 µM (active)
- GI50 (HOP-18): 0.401 µM (active)
- GI50 (KM-20L2): 0.0233 µM (active)
- GI50 (SNB-78): 0.00486 µM (active)
- GI50 (DLD-1): 0.822 µM (active)

SMILES: CNC(=O)OCc1nc(SC2CCCCO2)n(C)c1COC(=O)NC (centres undefined)
- GI50 (XF498): > 100 µM (inactive)
- GI50 (DMS-273): > 100 µM (inactive)
- GI50 (DMS-114): > 100 µM (inactive)
- GI50 (M19-MEL): > 100 µM (inactive)
- GI50 (HOP-18): > 100 µM (inactive)
- GI50 (KM-20L2): > 100 µM (inactive)
- GI50 (SNB-78): > 100 µM (inactive)
- GI50 (RXF 631): > 100 µM (inactive)
- GI50 (DLD-1): > 100 µM (inactive)
